Experimental data taken from patent publication US20150005387A1, “COMPOSITION CONTAINING AGMATINE, AND USES THEREOF IN PREPARING DRUGS OR NEUTRACEUTICAL SUBSTANCES” (priority 2012, published 2015).

Columns and labels:
[1] = 2.67 g/day for 14 days, patients with a herniated disc; cited from earlier work
[2] = tested on: Lewis lung carcinoma (3LL); assay: Tumour growth (tumour volume) in combination with an anticancer drug, Example 2; assay type: in vivo, male C57BL/6 mice
Experimental: Male C57BL/6 mice, aged 9 weeks and weighing 20 g (Janvier breeding station, Le Genest St Isle, France), are acclimatized for 1 week before the start of the study. Handling of the animals is carried out in accordance with the ethical directives for experiments and according to the recommendations of the European Biomedical Research Association.
After 20 days, the tumour cells are collected and dispersed in PBS, counted and diluted to reach 0.5×10^6 cells/100 μL, before being grafted in the right hind paw of the mice. The grafted mice are distributed randomly in the cages in groups of 5 individuals.
The tumour becomes palpable some days after the grafting took place. The animals are sacrificed 19 days after grafting the tumour cells.
The treatment is set up 6 days after grafting, when the tumour is palpable, and is administered 7 days a week and comprises the intake ad libitum of the normal nutrition or of the test solutes as well as drinking water.
The animal model (C57BL/6 mouse) and the tumour model (Lewis carcinoma) are described above. The mice are grafted with 0.5×10^6 tumour cells, by intramuscular injection in one of the hind paws.

[3] = tested on: Lewis lung carcinoma (3LL); assay: Tumour growth (tumour volume), Example 1; assay type: in vivo, male C57BL/6 mice
Experimental: Male C57BL/6 mice, aged 9 weeks and weighing 20 g (Janvier breeding station, Le Genest St Isle, France), are acclimatized for 1 week before the start of the study. Handling of the animals is carried out in accordance with the ethical directives for experiments and according to the recommendations of the European Biomedical Research Association. Cells from Lewis lung carcinoma (3LL) were obtained from the ECACC (European Collection of Cell Cultures) and grafted by intramuscular injection in the hind paws of male C57BL/6 mice by the method described previously (Hergueux J. et al., Exp. […] The grafted mice are distributed randomly in the cages in groups of 5 individuals. The tumour becomes palpable some days after grafting took place. […] Cancer, 1984, 34(2), 277-281).

[4] = tested on: Lewis lung carcinoma (3LL); assay: Pulmonary metastatic invasion; assay type: in vivo, male C57BL/6 mice; conditions: for additional benefit in terms of metastatic process: added to the diet depleted of cadaverine, putrescine, spermidine and spermine
Experimental: Cells from Lewis lung carcinoma (3LL) were obtained from the ECACC (European Collection of Cell Cultures) and grafted by intramuscular injection in the hind paws of male C57BL/6 mice by the method described previously (Hergueux J. et al., Exp. […] The grafted mice are distributed randomly in the cages in groups of 5 individuals. […] The metastatic dissemination is expressed as percentage invasion relative to the total surface area of the lungs. The percentage metastatic invasion was measured in the mice of the ten groups described above, each having received different nutrition.

[5] = tested on: putrescine, spermidine and spermine; assay: Tumour levels of polyamines; assay type: in vivo, male C57BL/6 mice; conditions: for decrease of the tumour level of putrescine / decrease of the tumour level of spermidine / decrease of the tumour level of spermine: relative to diet containing a normal level of polyamines
Experimental: The level of polyamines is measured in the tumour formed at the site of inoculation of the Lewis carcinoma cells. […] After incubation for at least 16 h at 4° C., the cells are centrifuged for 15 minutes at 3500 rpm at 4° C. The supernatant that contains the polyamines is removed and is used for determination of the polyamines. The polyamines are determined by the method described previously (Seiler N et al., 1996, Cancer Research, 56, 5624-5630). The three principal polyamines present in mammals (putrescine, spermidine and spermine) were determined for the ten groups of mice that had each received different nutrition. The results are illustrated in FIG. 3.

Weight of the spleen = assay type: in vivo, male C57BL/6 mice
Excerpt: The animals are euthanized, then the spleen is removed from the mice and weighed using a precision balance. In addition to the ten groups of mice that each received a different diet, as described above, an eleventh group of animals was included for this study. These were male C57BL/6 mice having the same basic physiological characteristics as the mice in the other ten groups but that had not received grafts of Lewis carcinoma cells.

noradrenaline release = conditions: intravenous injection, 1 to 100 mg/kg; cited from earlier work
[6] = animals injected with 0.3 nmol; cited from earlier work
[7] = intrathecal injection, diabetic rats; cited from earlier work
ODC = target: T1, ODC (Homo sapiens, UniProt P11926); conditions: renal cells; cited from earlier work
T1 sequence (P11926 1-461): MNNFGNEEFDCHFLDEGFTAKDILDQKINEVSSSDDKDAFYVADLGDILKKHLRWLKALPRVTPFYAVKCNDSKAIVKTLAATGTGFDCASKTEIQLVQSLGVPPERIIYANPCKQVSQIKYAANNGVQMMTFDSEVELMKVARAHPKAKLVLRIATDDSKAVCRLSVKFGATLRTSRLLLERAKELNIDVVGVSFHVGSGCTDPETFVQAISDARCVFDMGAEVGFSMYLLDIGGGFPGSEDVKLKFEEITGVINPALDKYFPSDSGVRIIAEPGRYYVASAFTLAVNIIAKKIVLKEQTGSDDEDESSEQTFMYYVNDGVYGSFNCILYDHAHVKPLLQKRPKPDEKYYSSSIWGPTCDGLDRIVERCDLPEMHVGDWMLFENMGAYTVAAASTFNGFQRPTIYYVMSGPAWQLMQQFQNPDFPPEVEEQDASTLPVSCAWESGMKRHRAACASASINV

[8] = tested on: cell lines from hepatocarcinomas; conditions: in vitro, 10 μm to 1 mM; cited from earlier work
[9] = cyclophosphamide (CY) 9 mg·kg^−1·week^−1
[10] = cyclophosphamide (CY) 90 mg·kg^−1·week^−1
[11] = depleted diet + agmatine 18.4 mg/kg of food
[12] = depleted diet + agmatine 184 mg/kg of food
[13] = depleted diet + agmatine 1840 mg/kg of food
[14] = tumour, neomycin based on a diet depleted of cadaverine, putrescine, spermidine and spermine

N=C(N)NCCCCN.O=S(=O)(O)O [agmatine sulphate]
perception of pain [1]: attenuated perception of pain

O=P1(N(CCCl)CCCl)NCCCO1 (stereo not drawn) [cyclophosphamide]
Monitoring of tumour volume (in cm^3) D0 [2, 9]: 0 cm^3 | Monitoring of tumour volume (in cm^3) D0 [2, 10]: 0 cm^3 | Monitoring of tumour volume (in cm^3) D2 [2, 9]: 0.08 cm^3 | Monitoring of tumour volume (in cm^3) D2 [2, 10]: 0.02 cm^3 | Monitoring of tumour volume (in cm^3) D5 [2, 9]: 0.2 cm^3 | Monitoring of tumour volume (in cm^3) D5 [2, 10]: 0.05 cm^3 | Monitoring of tumour volume (in cm^3) D8 [2, 9]: 0.296 cm^3 | Monitoring of tumour volume (in cm^3) D8 [2, 10]: 0.074 cm^3 | Monitoring of tumour volume (in cm^3) D10 [2, 9]: 0.64 cm^3 | Monitoring of tumour volume (in cm^3) D10 [2, 10]: 0.16 cm^3 | Monitoring of tumour volume (in cm^3) D12 [2, 9]: 1.2 cm^3 | Monitoring of tumour volume (in cm^3) D12 [2, 10]: 0.3 cm^3 | Monitoring of tumour volume (in cm^3) D15 [2, 9]: 2.64 cm^3 | Monitoring of tumour volume (in cm^3) D15 [2, 10]: 0.66 cm^3 | Monitoring of tumour volume (in cm^3) D18 [2, 9]: 3.0 cm^3 | Tumour volume on D18 (% relative to UAR) [2, 9]: −20% | Monitoring of tumour volume (in cm^3) D18 [2, 10]: 0.7 cm^3 | Tumour volume on D18 (% relative to UAR) [2, 10]: −81%

N=C(N)NCCCCN [agmatine]
increase of the antitumour effect of the diet depleted of cadaverine, putrescine, spermidine and spermine ([3]; agmatine 18.4 mg/kg of food): 8% | increase of the antitumour effect of the diet depleted of cadaverine, putrescine, spermidine and spermine ([3]; agmatine 184 mg/kg of food): 3% | increase of the antitumour effect of the diet depleted of cadaverine, putrescine, spermidine and spermine ([3]; agmatine 1840 mg/kg of food): 13% | additional benefit in terms of metastatic process [4]: does not appear to bring any additional benefit | decrease of the tumour level of putrescine [5, 11]: 35% | decrease of the tumour level of spermidine [5, 11]: 10% | decrease of the tumour level of spermine [5, 11]: 31% | decrease of the tumour level of putrescine [5, 12]: 14% | decrease of the tumour level of spermidine [5, 12]: 12% | decrease of the tumour level of spermine [5, 12]: 24% | decrease of the tumour level of putrescine [5, 13]: 50% | decrease of the tumour level of spermidine [5, 13]: 10% | decrease of the tumour level of spermine [5, 13]: 16% | additional effect on the weight of the spleen (Weight of the spleen; agmatine added to the depleted diet, regardless of the dose): no additional effect | blood pressure (noradrenaline release): decrease in blood pressure | perception of pain (allodynia) [6]: anti-allodynic effect | tactile or thermal allodynia and hyperalgesia [7]: suppresses tactile or thermal allodynia as well as hyperalgesia | inhibition of ODC / synthesis of polyamines (ODC): dose-dependent inhibition of ODC | cell cycle [8]: stopping of the cancer cells in phase G2/M of the cell cycle

neomycin
evolution of tumour volume ([3]; neomycin 2 mg/ml in drinking water, diet containing a normal level of polyamines): no effect | mean value of pulmonary metastatic invasion ([4]; 19 days after grafting, no agmatine, neomycin where given 2 mg/ml in drinking water): 11% | additional benefit in terms of metastatic process [4]: does not lead to any additional benefit | decrease in metastatic invasion ([4]; relative to mice on a diet containing a normal level of polyamines without antibiotic): 60% | decrease in the level of putrescine ([5]; tumour, based on a normal diet): 17% | effect on the level of spermidine ([5]; tumour, based on a normal diet): no effect | increase in the level of spermine ([5]; tumour, based on a normal diet): 7% | decrease in the level of spermine [5, 14]: 5% | increase in the level of putrescine [5, 14]: 17% | increase in the level of spermidine [5, 14]: 24% | mean value of the weight of the spleen (Weight of the spleen; grafted mice, 19 days after grafting, no agmatine, neomycin where given 2 mg/ml in drinking water): 151 mg | effect of neomycin on the weight of the spleen (Weight of the spleen; groups 2, 4 and 6 (normal diet; depleted diet; depleted diet + agmatine 18.4 mg/kg of food)): decrease in the weight of the spleen | effect of neomycin on the weight of the spleen (Weight of the spleen; groups 8 and 10 (depleted diet + agmatine 184 and 1840 mg/kg of food)): increase in the weight of the spleen
